Measurements taken from patent US11951094B2, “TLR2 modulator compounds, pharmaceutical compositions and uses thereof” (Axial Therapeutics, Inc., priority 2020, dated 2024).
pEC50, pIC50: −log10 of the molar value.

Columns and labels:
[1] = target: T1, TLR2 (Homo sapiens, UniProt O60603); assay: TLR2 antagonist screening assay, HEK Blue hTLR2 cells, competition with diprovocim; format: cell-based; parameters: host or cells: HEK Blue hTLR2 cells
From the text: TLRs signal through ligand-mediated dimerization or multimerization. TLR2 may partner with TLR1 or TLR6 to produce an agonist signal. Compounds that prevent agonist signaling, antagonists, may interfere with proper dimerization or with downstream signaling. The following assay was developed to identify and characterize novel TLR2 antagonists.
The in vitro TLR2 assay consists of a cell line that responds to TLR2 engagement by producing a factor that elicits a color change in the culture media and can be readily measured by various colorimetric detection methods. This assay enables the identification of existing and novel compounds that engage TLR2. Treating reporter cells with putative TLR2 antagonists will diminish the reporter response to TLR2 agonists.
TLR2 antagonists were screened for TLR2 binding and blocking with a competition assay. […] The assay was performed with Invivogen HEK Blue cells, which express the human TLR2 receptor as well as NFkB-inducible secreted Alkaline Phosphatase. Alkaline Phosphatase activity was proportional to TLR2 activation, and thus served as a colorimetric reporter.
HEK Blue hTLR2 cells (Invivogen) were grown in DMEM with 10% FBS (Seradigm). Cells were seeded at 40,000 cells/well in 96-well plates and incubated overnight to adhere. Media was replaced with 200 uL/well HEK Blue Detection Medium (Invivogen). […] Cells incubated for 16-24 hours, then absorbance at 600 nm was read on a SpectraMax M2 (Molecular Devices). […] Four parameter dose response curves were fit according to the following model, and IC50 values were reported: Y=Bottom+(Top-Bottom)/(1+(IC50/X)^HillSlope)
Where X is the antagonist concentration, Y is the normalized absorbance, Top and Bottom are the plateaus, IC50 is the concentration at half-maximal inhibition, and HillSlope is the slope factor.
• 1. HEK-Blue TLR2 cells are diluted in complete DME culture medium and plated into 96-well plates at 40,000 cells per well and cultured overnight. • 2. After 16-24 hours in culture, the media is removed and replaced with 200 microliters per well of HEK-Blue Detection media. • 3. TLR2 antagonists are diluted 100-fold from DMSO stocks into each well, yielding a final DMSO concentration of 1% in all wells. Reporter cells are treated for 1-2 hours, then treated with TLR2 agonist diluted to the EC50-70 concentration. • 4. Treated cells are cultured overnight and the following day are assayed in plate reader for Absorbance at 600 nanometer.

[2] = target: T1, TLR2; assay: TLR2 agonist screening assay, HEK-Blue TLR2 reporter cell line (NF-kB-driven SEAP, absorbance at 600 nm); format: cell-based; parameters: host or cells: HEK-293 (HEK-Blue TLR2 reporter cell line); conditions: HEK-Blue TLR2 reporter cells, agonist mode
Procedure, shortened: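 EC50 values come from 600 nm absorbance of SEAP-converted substrate after overnight agonist exposure. The reporter line was HEK-293 engineered with TLR2 and an NF-kB-SEAP construct, seeded at about 40,000 cells per well 16-24 h beforehand. Compounds were added at 1% final DMSO.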

T1 sequence (O60603 21-784): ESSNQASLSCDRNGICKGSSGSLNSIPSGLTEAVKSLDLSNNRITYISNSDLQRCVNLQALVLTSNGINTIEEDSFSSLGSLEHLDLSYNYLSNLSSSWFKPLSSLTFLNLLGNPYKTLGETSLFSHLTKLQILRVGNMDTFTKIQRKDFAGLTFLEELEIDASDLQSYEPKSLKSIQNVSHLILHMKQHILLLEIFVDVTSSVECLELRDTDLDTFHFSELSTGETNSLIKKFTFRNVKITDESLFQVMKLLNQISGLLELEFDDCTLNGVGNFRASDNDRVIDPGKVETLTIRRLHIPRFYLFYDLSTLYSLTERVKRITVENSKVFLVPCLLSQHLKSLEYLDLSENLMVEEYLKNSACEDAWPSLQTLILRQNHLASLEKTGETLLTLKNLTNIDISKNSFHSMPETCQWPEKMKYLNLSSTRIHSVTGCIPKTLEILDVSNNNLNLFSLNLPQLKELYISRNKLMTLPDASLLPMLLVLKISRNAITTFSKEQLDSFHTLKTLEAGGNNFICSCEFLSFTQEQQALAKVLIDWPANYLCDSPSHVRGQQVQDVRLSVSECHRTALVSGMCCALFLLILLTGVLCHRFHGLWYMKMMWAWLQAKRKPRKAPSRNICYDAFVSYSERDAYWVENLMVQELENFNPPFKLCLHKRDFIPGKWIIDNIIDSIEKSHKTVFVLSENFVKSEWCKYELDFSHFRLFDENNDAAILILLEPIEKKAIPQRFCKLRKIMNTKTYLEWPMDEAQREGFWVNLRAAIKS

| SMILES | pIC50 [1] | pEC50 ([2]; average of all runs (Table 4)) | pEC50 ([2]; average of all runs (Table 3)) |
| --- | --- | --- | --- |
| CCCCCCCC(=O)N1CCCN(S(=O)(=O)c2ccc(C(=O)N3C[C@@H](C(=O)N[C@H]4C[C@@H]4c4ccccc4)[C@H](C(=O)N[C@H]4C[C@@H]4c4ccccc4)C3)cc2)CC1C(=O)NCCCCCC (single isomer, unassigned) [Compound 203, (3S,4S)-1-(4-(((R*)-3-(hexylcarbamoyl)-4-octanoyl-1,4-diazepan-1-yl)sulfonyl)benzoyl)-N3,N4-bis((1S,2R)-2-phenylcyclopropyl)pyrrolidine-3,4-dicarboxamide] | 6.00 to 6.45 | < 6.00 |  |
| CCCCCCCC(=O)N1CCN(S(=O)(=O)c2ccc(C(=O)N3C[C@@H](C(=O)N[C@H]4C[C@@H]4c4ccccc4)[C@H](C(=O)N[C@H]4C[C@@H]4c4ccccc4)C3)cc2)CC1C(=O)NCCCCCC (stereo partly shown) [Compound 053] | 6.00 to 6.45 |  | < 6.00 |
| O=C(N[C@H]1C[C@@H]1c1ccccc1)[C@@H]1CN(C(=O)C23CCC(C(=O)N4C[C@@H](C(=O)N[C@H]5C[C@@H]5c5ccccc5)[C@H](C(=O)N[C@H]5C[C@@H]5c5ccccc5)C4)(CC2)CC3)C[C@H]1C(=O)N[C@H]1C[C@@H]1c1ccccc1 [Compound 077, (3S,3'S,4S,4'S)-1,1′-(bicyclo [2.2.2]octane-1,4-dicarbonyl) bis (N3,N4-bis((1S,2R)-2-phenylcyclopropyl)pyrrolidine-3,4-dicarboxamide)] | 6.00 to 6.45 | < 6.00 |  |
| CCCCCCN1C(=O)[C@H](CNC(=O)c2ccc(C(=O)N3C[C@@H](C(=O)N[C@H]4C[C@@H]4c4ccccc4)[C@H](C(=O)N[C@H]4C[C@@H]4c4ccccc4)C3)cc2)NC(=O)[C@@H]1CCCCC [Compound 176, (3S,4S)-1-(4-((((2S,5S)-4-hexyl-3,6-dioxo-5-pentylpiperazin-2-yl)methyl)carbamoyl)benzoyl)-N3,N4-bis((1S,2R)-2-phenylcyclopropyl)pyrrolidine-3,4-dicarboxamide] | 6.46 to 9.00 | < 6.00 |  |
| O=C(N[C@H]1C[C@@H]1c1ccccc1)[C@@H]1CN(C(=O)c2ccc(C(=O)N3CC[C@@H](n4cnc(-c5ccc(C(F)(F)F)cc5)c4)C3)cc2)C[C@H]1C(=O)N[C@H]1C[C@@H]1c1ccccc1 [Compound 277] | 6.46 to 9.00 | < 6.00 |  |

Second part, the molecule after the results:

| pIC50 [1] | pEC50 ([2]; average of all runs (Table 4)) | pEC50 ([2]; average of all runs (Table 3)) | SMILES |
| --- | --- | --- | --- |
| 6.00 to 6.45 |  | < 6.00 | CCCCCCCCCCCCCCNC(=O)C1CN(C(=O)c2ccc(C(=O)N3C[C@@H](C(=O)N[C@H]4C[C@@H]4c4ccccc4)[C@H](C(=O)N[C@H]4C[C@@H]4c4ccccc4)C3)cc2)C1 [Compound 007] |
| 6.00 to 6.45 |  | < 6.00 | CCCCCCCCCCCCCCC(=O)NC1CCN(C(=O)c2ccc(C(=O)N3C[C@@H](C(=O)N[C@H]4C[C@@H]4c4ccccc4)[C@H](C(=O)N[C@H]4C[C@@H]4c4ccccc4)C3)cc2)CC1 [Compound 008] |
| 6.00 to 6.45 |  | < 6.00 | CCCCCCCCCCCCCCNC(=O)C1CN(C(=O)c2ccc(C(=O)N3C[C@@H](C(=O)N[C@H]4C[C@@H]4c4ccccc4)[C@H](C(=O)N[C@H]4C[C@@H]4c4ccccc4)C3)cc2)CCN1C(C)=O (stereo partly shown) [Compound 024] |
| 6.00 to 6.45 | < 6.00 |  | CCCCCCCC(=O)N1CCN(S(=O)(=O)c2ccc(C(=O)N3C[C@@H](C(=O)N[C@H]4C[C@@H]4c4ccccc4)[C@H](C(=O)N[C@H]4C[C@@H]4c4ccccc4)C3)cc2)C[C@H]1C(=O)NCCCCCC [Compound 160, (3S,4S)-1-(4-(((S)-3-(hexylcarbamoyl)-4-octanoylpiperazin-1-yl)sulfonyl)benzoyl)-N3,N4-bis((1S,2R)-2-phenylcyclopropyl)pyrrolidine-3,4-dicarboxamide] |
| 6.46 to 9.00 | < 6.00 |  | CCCCCCCCCCCCCCNC(=O)[C@@H]1CN(C(=O)c2ccc(C(=O)N3C[C@@H](C(=O)N[C@H]4C[C@@H]4c4ccccc4)[C@H](C(=O)N[C@H]4C[C@@H]4c4ccccc4)C3)cc2)CCN1C(C)=O [Compound 162, (3S,4S)-1-(4-((S)-4-acetyl-3-(tetradecylcarbamoyl)piperazine-1-carbonyl)benzoyl)-N3,N4-bis((1S,2R)-2-phenylcyclopropyl) pyrrolidine-3,4-dicarboxamide] |
| 6.46 to 9.00 | < 6.00 |  | CCCCCCCCCCCCCCN1CC(=O)N[C@@H](CNC(=O)c2ccc(C(=O)N3C[C@@H](C(=O)N[C@H]4C[C@@H]4c4ccccc4)[C@H](C(=O)N[C@H]4C[C@@H]4c4ccccc4)C3)cc2)C1=O [Compound 177, (3S,4S)-1-(4-((((S)-3,6-dioxo-4-tetradecylpiperazin-2-yl)methyl)carbamoyl)benzoyl)-N3,N4-bis((1S,2R)-2-phenylcyclopropyl)pyrrolidine-3,4-dicarboxamide] |
